Measured values taken from patent US11708318B2, “Polymorphic forms of RAD1901-2HCL” (Radius Pharmaceuticals, Inc., priority 2017, dated 2023).

How the values were obtained:
[1] = Gravimetric Vapour Sorption (GVS), with XRPD of the recovered sample; type: physicochemical
Protocol: Sorption isotherms were obtained using a SMS DVS Intrinsic moisture sorption analyzer, controlled by DVS Intrinsic Control software v1.0.1.2 (or v 1.0.1.3). The sample temperature was maintained at 25° C. by the instrument controls. The humidity was controlled by mixing streams of dry and wet nitrogen, with a total flow rate of 200 ml/min. The relative humidity was measured by a calibrated Rotronic probe (dynamic range of 1.0-100% RH), located near the sample. The weight change, (mass relaxation) of the sample as a function of % RH was constantly monitored by the microbalance (accuracy ±0.005 mg).
A sample (e.g., 20 mg) was placed in a tared mesh stainless steel basket under ambient conditions. The sample was loaded and unloaded at 40% RH and 25° C. (typical room conditions). A moisture sorption isotherm was performed as outlined below (2 scans giving 1 complete cycle). Standard isotherms were performed at 25° C. at 10% RH intervals over a 0-90% RH range. Data analysis was carried out using Microsoft Excel using DVS Analysis Suite v6.2 (or 6.1 or 6.0).
In a cycle of 2 scans, the first scan was performed with adsorption of 40-90% RH, followed by a second scan with desorption of 90-0% RH and adsorption of 0-40% RH, with intervals of 10% RH, at 25° C. with stability dm/dt of 0.002% ° C./min. The sorption time was 6 hr time out.
The sample was recovered after completion of the isotherm and re-analyzed by XRPD. Custom moisture sorption methods were also performed at 25° C. at fixed % RH intervals over a 0-95% RH range, with the purpose to fully understand the sorption/desorption behavior of the compound under elevated conditions.
To further explore the humidity behavior of Sample 1 (Form 1) upon exposure to high RH (>90%), custom GVS experiments were designed and carried out. Initially, the sample was treated by holding at 90 and then 95% RH for ˜12 hours to see if hydrate formation could be observed (HighRH method of Steps 1 and 2 of Table 2, FIGS. 6C-6D).
To test the stability of the hydrated state, GVS method HighRH_Desorp_3 was designed with a desorption step and subsequent adsorption (see Table 2 with steps 1-4, FIGS. 6E-6F).
Finally, to ensure complete conversion to the anhydrous and hydrated forms, a GVS experiment was designed to increase both the length of the desorption step at 0% RH, and the adsorption step at 95% RH, respectively (Table 3). Based on the weight stabilization observed in the kinetic plots for Sample 1 in HighRH and HighRH_Desorp_3 methods discussed above (FIGS. 6D and 6F), a holding time of 800 mins at 0% RH and 1600 mins at 95% RH were chosen. A double cycle was also recorded for this experiment to observe whether the sample would return to Form 1 or form a mixed anhydrous/hydrated species (see Table 3, FIGS. 6G-6H).

[2] = Storage at elevated temperature/humidity, analysed by XRPD; type: physicochemical
Protocol: Samples 1 and 2 were characterized by XRPD at various conditions. XRPD patterns were collected for the samples at ambient condition as the samples were provided; at variable temperature (VT-XRPD); at variable humidity (VH-XRPD); after the samples were exposed to 40° C./75% RH for 1 week and 25° C./97% RH for 1 week, respectively; and after a GVS measurement wherein the samples were exposed to 0-90% RH. Samples 1 and 2 were also characterized by ^1H NMR, TGA, DSC, KF, IC, GVS (exposed to 0-90% RH), PLM, SEM, and HPLC (Table 5).

SMILES: CCNCCc1ccc(CN(CC)c2cc(OC)ccc2[C@@H]2CCc3cc(O)ccc3C2)cc1.Cl.Cl [Sample 1]
- GVS uptake 0-90% RH ([1]; 25° C., 0-90% RH): 1.8% wt.
- GVS uptake when held at 95% RH ([1]; HighRH method, held at 95% RH for ~12 hours): 5-6 % wt.
- Solid form on exposure to high RH (>90%) by GVS ([1]; above 90% RH): irreversibly converted to a hydrate (Form 3)
- XRPD post GVS (HighRH_DoubleCycle_2 method) ([1]; double cycle, 1600 mins at 95% RH, 800 mins at 0% RH): formation of the hydrate (Form 3)
- XRPD post GVS (HighRH method) ([1]; held at 90 and then 95% RH for ~12 hours): mixture of states or incomplete conversion
- XRPD post GVS (HighRH_Desorp_3 method) ([1]; single cycle: to 95% RH, desorption to 0% RH, adsorption 0-40% RH): mixture of Form 1 and Form 3
- XRPD after storage at 25° C./97% RH for 1 week ([2]; 25° C./97% RH, 1 week): Form 3
- Solid form on prolonged exposure to high RH (>90%) ([2]; high RH (>90%), e.g. for 7 days): converted to the hydrate Form 3
